Results: patent publication US6472348B1, “Pyridone derivatives and herbicides” (Kumiai Chemical Industry Co., Ltd., priority 1996, dated 2002)

Tests used:
green foxtail (Se) [1] = assay: Test Example 6: crop plant selectivity by upland field soil treatment (soybean), herbicidal effects; assay type: in vivo; design: scale not given here; conditions: dose 6.3 g ai/10a, 21st day after application
Procedure: (§1) (Test on Crop Plant Selectivity by Upland Field Soil Treatment)
(§2) In a plastic pot (surface area: 600 cm^2) filled with sand, soybean (Gl), Diaitaria ciliaris (Di), green foxtail (Se), Johnsongrass (So), pale smartweed (Po), slender amaranth (Am), common lambsquarters (Ch) and China jute (Ab) were sown and covered with soil. […] The plants were then cultured in a green house, and the evaluation of the herbicidal effects and phytotoxicity was conducted on the 21st day after the application in accordance with the standards as identified in Table 47. Symbol—represents “not tested”.

[2] = test system: common lambsquarters (Ch); assay: as above; assay type: in vivo; design: scale not given here; conditions: dose 6.3 g ai/10a, 21st day after application
Procedure: as §1, §2

pale smartweed (Po) [3] = assay: as above; assay type: in vivo; design: scale not given here; conditions: dose 6.3 g ai/10a, 21st day after application
Procedure: as §1, §2

slender amaranth (Am) [4] = assay: as above; assay type: in vivo; design: scale not given here; conditions: dose 6.3 g ai/10a, 21st day after application
Procedure: as §1, §2

China jute (Ab) [5] = assay: as above; assay type: in vivo; design: scale not given here; conditions: dose 6.3 g ai/10a, 21st day after application
Procedure: as §1, §2

monochoria (Mo) = assay: Test Example 1: herbicidal effects by paddy field soil treatment; assay type: in vivo; conditions: 100 g of the active ingredient per 10 ares, 21st day after the application, index 0-5 of Table 47;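 further: grade of growth control; 5 = at least 90%; 4 = 70 to 90%; 3 = 50 to 70%; 2 = 30 to 50%; 1 = 10 to 30%; 0 = under 10%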
Outline: (§3)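 Herbicidal effect was scored against a graded standard 21 days after treatment. Seeds were sown in puddled, leveled paddy soil flooded to 3 cm depth, and the active ingredient was applied at 100 g per 10 ares before greenhouse culture.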

barnyardgrass (Ec) [6] = assay: as above; assay type: in vivo; conditions: 100 g of the active ingredient per 10 ares, 21st day after the application, index 0-5 of Table 47
Outline: as §3

bulrush (Sc) = assay: as above; assay type: in vivo; conditions: 100 g of the active ingredient per 10 ares, 21st day after the application, index 0-5 of Table 47;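 further: grade of growth control; 5 = at least 90%; 4 = 70 to 90%; 3 = 50 to 70%; 2 = 30 to 50%; 1 = 10 to 30%; 0 = under 10%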
Outline: as §3

rice flatsedge (Ci) [7] = assay: Test Example 2: herbicidal effects by upland field soil treatment; assay type: in vivo; conditions: 100 g of the active ingredient per 10 ares;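 further: grade of growth control; 5 = at least 90%; 4 = 70 to 90%; 3 = 50 to 70%; 2 = 30 to 50%; 1 = 10 to 30%; 0 = under 10%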
Source text: (§4) (Test on Herbicidal Effects by Upland Field Soil Treatment)

Digitaria ciliaris (Di) = assay: as above; assay type: in vivo; conditions: 100 g of the active ingredient per 10 ares;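 further: grade of growth control; 5 = at least 90%; 4 = 70 to 90%; 3 = 50 to 70%; 2 = 30 to 50%; 1 = 10 to 30%; 0 = under 10%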
Source text: as §4

barnyardgrass (Ec) [8] = assay: as above; assay type: in vivo; conditions: 100 g of the active ingredient per 10 ares
Source text: as §4

[9] = test system: common lambsquarters (Ch); assay: as above; assay type: in vivo; conditions: 100 g of the active ingredient per 10 ares
Source text: as §4

pale smartweed (Po) [10] = assay: as above; assay type: in vivo; conditions: 100 g of the active ingredient per 10 ares
Source text: as §4

slender amaranth (Am) [11] = assay: as above; assay type: in vivo; conditions: 100 g of the active ingredient per 10 ares
Source text: as §4

cotton (Go) = assay: Test Example 4: crop plant selectivity by upland field soil treatment (cotton), phytotoxicity; assay type: in vivo; design: scale not given here; conditions: dose 6.3 g ai/10 a, evaluated 21st day after application
Procedure: as §1
(§5) In a plastic pot (surface area: 600 cm^2) filled with sand, cotton (Go), Diaitaria ciliaris (Di), green foxtail (Se), pale smartweed (Po), slender amaranth (Am), common lambsquarters (Ch) and China jute (Ab) were sown and covered with soil. […] The plants were then cultured in a green house, and the evaluation of the herbicidal effects and phytotoxicity was conducted on the 21st day after the application in accordance with the standards as identified in Table 47. Symbol—represents “not tested”.

soybean (Gl) = assay: Test Example 6: crop plant selectivity by upland field soil treatment (soybean), phytotoxicity; assay type: in vivo; design: scale not given here; conditions: dose 6.3 g ai/10a, 21st day after application
Procedure: as §1, §2

rice flatsedge (Ci) [12] = assay: Test Example 3: herbicidal effects by upland field foliage treatment; assay type: in vivo; design: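 grade of growth control; 5 = at least 90%; 4 = 70 to 90%; 3 = 50 to 70%; 2 = 30 to 50%; 1 = 10 to 30%; 0 = under 10%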; conditions: 100 g of the active ingredient per 10 ares, evaluated on the 14th day after treatment
Outline: (§6)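 Greenhouse test, upland conditions: seeds sown in sand pots of 120 cm^2 area and overlaid with soil; 2 weeks growth; leaves treated; herbicidal injury graded on day 14 after treatment by fixed standards.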

Diaitaria ciliaris (Di) = assay: as above; assay type: in vivo; design: scale not given here; conditions: 100 g of the active ingredient per 10 ares, evaluated on the 14th day after treatment
Outline: as §6

barnyardgrass (Ec) [13] = assay: as above; assay type: in vivo; design: scale not given here; conditions: 100 g of the active ingredient per 10 ares, evaluated on the 14th day after treatment
Outline: as §6

[14] = test system: common lambsquarters (Ch); assay: as above; assay type: in vivo; design: scale not given here; conditions: 100 g of the active ingredient per 10 ares, evaluated on the 14th day after treatment
Outline: as §6

pale smartweed (Po) [15] = assay: as above; assay type: in vivo; design: scale not given here; conditions: 100 g of the active ingredient per 10 ares, evaluated on the 14th day after treatment
Outline: as §6

slender amaranth (Am) [16] = assay: as above; assay type: in vivo; design: scale not given here; conditions: 100 g of the active ingredient per 10 ares, evaluated on the 14th day after treatment
Outline: as §6

wheat (Tr) = assay: Test Example 9: crop plant selectivity by upland field foliage treatment (wheat), phytotoxicity; conditions: dose 1.6 g ai/10a, 14th day after treatment
Procedure: (§7) (Test on Crop Plant Selectivity by Upland Field Foliage Treatment)
(§8) In a plastic pot (surface area: 600 cm^2) filled with sand, wheat (Tr), pale smartweed (Po), slender amaranth (Am), common lambsquarters (Ch) and China jute (Ab) were sown and cultured in a green house for 2 weeks. […] The plants were then cultured in a green house, and the evaluation of the herbicidal effects and phytotoxicity was conducted on the 14th day after the treatment in accordance with the standards as identified in Table 47.

green foxtail (Se) [17] = assay: Test Example 4: crop plant selectivity by upland field soil treatment (cotton), herbicidal effects; assay type: in vivo; design: scale not given here; conditions: dose 6.3 g ai/10 a, evaluated 21st day after application
Procedure: as §1, §5

[18] = test system: common lambsquarters (Ch); assay: as above; assay type: in vivo; design: scale not given here; conditions: dose 6.3 g ai/10 a, evaluated 21st day after application
Procedure: as §1, §5

pale smartweed (Po) [19] = assay: as above; assay type: in vivo; design: scale not given here; conditions: dose 6.3 g ai/10 a, evaluated 21st day after application
Procedure: as §1, §5

slender amaranth (Am) [20] = assay: as above; assay type: in vivo; design: scale not given here; conditions: dose 6.3 g ai/10 a, evaluated 21st day after application
Procedure: as §1, §5

China jute (Ab) [21] = assay: as above; assay type: in vivo; design: scale not given here; conditions: dose 6.3 g ai/10 a, evaluated 21st day after application
Procedure: as §1, §5

[22] = test system: common lambsquarters (Ch); assay: Test Example 9: crop plant selectivity by upland field foliage treatment (wheat), herbicidal effects; assay type: in vivo; design: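 grade of growth control; 5 = at least 90%; 4 = 70 to 90%; 3 = 50 to 70%; 2 = 30 to 50%; 1 = 10 to 30%; 0 = under 10%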; conditions: dose 1.6 g ai/10a, 14th day after treatment
Procedure: as §7, §8

pale smartweed (Po) [23] = assay: as above; assay type: in vivo; design: scale not given here; conditions: dose 1.6 g ai/10a, 14th day after treatment
Procedure: as §7, §8

slender amaranth (Am) [24] = assay: as above; assay type: in vivo; design: scale not given here; conditions: dose 1.6 g ai/10a, 14th day after treatment
Procedure: as §7, §8

China jute (Ab) [25] = assay: as above; assay type: in vivo; design: scale not given here; conditions: dose 1.6 g ai/10a, 14th day after treatment
Procedure: as §7, §8

corn (Ze) = assay: Test Example 7: crop plant selectivity by upland field soil treatment (corn), phytotoxicity; assay type: in vivo; design: scale not given here; conditions: dose 6.3 g ai/10a, 21st day after application
Procedure: as §1
(§9) In a plastic pot (surface area: 600 cm^2) filled with sand, corn (Ze), green foxtail (Se), pale smartweed (Po), slender amaranth (Am), common lambsquarters (Ch) and China jute (Ab) were sown and covered with soil. […] The plants were then cultured in a green house, and the evaluation of the herbicidal effects and phytotoxicity was conducted on the 21st day after the application in accordance with the standards as identified in Table 47.

green foxtail (Se) [26] = assay: Test Example 7: crop plant selectivity by upland field soil treatment (corn), herbicidal effects; assay type: in vivo; design: scale not given here; conditions: dose 6.3 g ai/10a, 21st day after application
Procedure: as §1, §9

[27] = test system: common lambsquarters (Ch); assay: as above; assay type: in vivo; design: scale not given here; conditions: dose 6.3 g ai/10a, 21st day after application
Procedure: as §1, §9

pale smartweed (Po) [28] = assay: as above; assay type: in vivo; design: scale not given here; conditions: dose 6.3 g ai/10a, 21st day after application
Procedure: as §1, §9

slender amaranth (Am) [29] = assay: as above; assay type: in vivo; design: scale not given here; conditions: dose 6.3 g ai/10a, 21st day after application
Procedure: as §1, §9

China jute (Ab) [30] = assay: as above; assay type: in vivo; design: scale not given here; conditions: dose 6.3 g ai/10a, 21st day after application
Procedure: as §1, §9

[31] = 21st day after the application, index 0-5 of Table 47
[32] = evaluated on the 21st day after application

SMILES	Herbicidal effects Mo (monochoria (Mo))	Herbicidal effects Ec (barnyardgrass (Ec) [6])	Herbicidal effects Sc (bulrush (Sc))	Phytotoxicity Go (cotton (Go))	Herbicidal effects Ci (rice flatsedge (Ci) [12])	Herbicidal effects Di (Diaitaria ciliaris (Di))	Herbicidal effects Ec (barnyardgrass (Ec) [13])	Herbicidal effects Ch [14]	Herbicidal effects Po (pale smartweed (Po) [15])	Herbicidal effects Am (slender amaranth (Am) [16])	Herbicidal effects Se (green foxtail (Se) [17])	Herbicidal effects Ch [18]	Herbicidal effects Po (pale smartweed (Po) [19])	Herbicidal effects Am (slender amaranth (Am) [20])	Herbicidal effects Ab (China jute (Ab) [21])	Phytotoxicity Ze (corn (Ze))	Herbicidal effects Se (green foxtail (Se) [26])	Herbicidal effects Ch [27]	Herbicidal effects Po (pale smartweed (Po) [28])	Herbicidal effects Am (slender amaranth (Am) [29])	also measured
C#CC(CC)Oc1cc(-c2ccc(C(F)(F)F)n(C)c2=O)c(F)cc1Cl (racemic) [1-122]	5	5	5	0	5	5	5	5	5	5	5	5	5	5	5	1	5	5	5	5	Herbicidal effects Se (green foxtail (Se) [1]): 5; Herbicidal effects Ch [2]: 5; Herbicidal effects Po (pale smartweed (Po) [3]): 5; Herbicidal effects Am (slender amaranth (Am) [4]): 5; Herbicidal effects Ab (China jute (Ab) [5]): 5; Herbicidal effects Ci (rice flatsedge (Ci) [7]; [31]): 5; Herbicidal effects Di (Digitaria ciliaris (Di); [31]): 5; Herbicidal effects Ec (barnyardgrass (Ec) [8]; [31]): 5; Herbicidal effects Ch [9, 31]: 5; Herbicidal effects Po (pale smartweed (Po) [10]; [31]): 5; Herbicidal effects Am (slender amaranth (Am) [11]; [31]): 5; Phytotoxicity Gl (soybean (Gl)): 2; Phytotoxicity Tr (wheat (Tr)): 2; Herbicidal effects Ch [22]: 5; Herbicidal effects Po (pale smartweed (Po) [23]): 5; Herbicidal effects Am (slender amaranth (Am) [24]): 5; Herbicidal effects Ab (China jute (Ab) [25]): 5; Herbicidal effects Ab (China jute (Ab) [30]): 5
CCOc1cc(-c2ccc(C(F)(F)F)n(C)c2=O)c(F)cc1Cl [1-150]	5	5	5	0	5	5	5	5	5	5	5	5	5	5	5	1	5	5	5	5	Herbicidal effects Se (green foxtail (Se) [1]): 5; Herbicidal effects Ch [2]: 5; Herbicidal effects Po (pale smartweed (Po) [3]): 5; Herbicidal effects Am (slender amaranth (Am) [4]): 5; Herbicidal effects Ab (China jute (Ab) [5]): 5; Herbicidal effects Ci (rice flatsedge (Ci) [7]; [31]): 5; Herbicidal effects Di (Digitaria ciliaris (Di); [31]): 5; Herbicidal effects Ec (barnyardgrass (Ec) [8]; [31]): 5; Herbicidal effects Ch [9, 31]: 5; Herbicidal effects Po (pale smartweed (Po) [10]; [31]): 5; Herbicidal effects Am (slender amaranth (Am) [11]; [31]): 5; Phytotoxicity Gl (soybean (Gl)): 1; Herbicidal effects Ab (China jute (Ab) [30]): 5
Cn1c(C(F)(F)F)ccc(-c2cc(OCCF)c(Cl)cc2F)c1=O [1-172]	5	5	5	1	5	5	5	5	5	5	5	5	5	5	5	2	5	5	5	5	Herbicidal effects Ci (rice flatsedge (Ci) [7]; [32]): 5; Herbicidal effects Di (Digitaria ciliaris (Di); [32]): 5; Herbicidal effects Ec (barnyardgrass (Ec) [8]; [32]): 5; Herbicidal effects Ch [9, 32]: 5; Herbicidal effects Po (pale smartweed (Po) [10]; [32]): 5; Herbicidal effects Am (slender amaranth (Am) [11]; [32]): 5; Herbicidal effects Ab (China jute (Ab) [30]): 5
